Paper doi:10.1101/2020.08.05.237982v3, “ThermoBRET: a ligand-engagement nanoscale thermostability assay applied to GPCRs” (biorxiv, 2023)

Target: T1, CB2 (Nluc-CB2, tsNluc-CB2) (Homo sapiens, UniProt P34972)
T1 construct: gene CNR2; N-terminal cleaved signal peptide, TwinStrep tag and Nluc or tsNluc
Type: binding
Conditions: Nluc-CB2, 20 µM ligand, DDM/CHAPSO/CHS

T1 sequence (P34972 whole entry): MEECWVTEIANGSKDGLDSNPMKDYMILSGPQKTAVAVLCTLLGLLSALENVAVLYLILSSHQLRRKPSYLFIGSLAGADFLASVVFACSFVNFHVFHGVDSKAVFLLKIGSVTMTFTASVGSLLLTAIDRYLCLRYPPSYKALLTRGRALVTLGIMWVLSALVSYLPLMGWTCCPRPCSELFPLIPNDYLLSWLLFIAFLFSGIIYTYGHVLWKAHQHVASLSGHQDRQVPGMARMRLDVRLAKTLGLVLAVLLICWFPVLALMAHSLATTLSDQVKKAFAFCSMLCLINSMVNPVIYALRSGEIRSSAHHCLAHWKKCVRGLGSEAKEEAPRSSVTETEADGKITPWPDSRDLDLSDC

`CCCCCCC(C)(C)c1cc(OC)c([C@@H]2C=C(CO)[C@@H]3C[C@H]2C3(C)C)c(OC)c1` [HU308] was tested, and the dTm was “HU308 and SR144528 also produced appreciable increases in thermostability”.

For `Cc1ccc(Cn2nc(C(=O)N[C@@H]3C(C)(C)[C@@H]4CC[C@@]3(C)C4)cc2-c2ccc(Cl)c(C)c2)cc1` [SR144528], the dTm was “HU308 and SR144528 also produced appreciable increases in thermostability”.
